Source: patent publication US8367729B2, “Composition with preventive or improvement effect on symptoms or diseases associated with stress-induced behavior disorders” (Suntory Holdings Limited, priority 2004, dated 2013)

Experiments:
[1] = test system: mice subjected to restraint stress; experiment: Behavioral observation test (Irwin neurobehavioral test method) after 6-hour restraint stress; type: in vivo, male ICR mice; details: conclusion of Example 3
Description: The experimental groups consisted of 51 two- to three-month-old male ICR mice, divided into a control diet group (27 mice) and a TG[…]-containing diet group (24 mice), with the control diet or TG[…]-containing diet shown in Table 1 being given to each group. Each group was further divided into non-restrained groups (non-restrained control diet group (9), non-restrained arachidonic acid (ARA) diet group (12)) and restrained groups (restrained control diet group (18), restrained ARA diet group (12)). The restraining was accomplished using a wire mesh restraining tube, once for a 6 hour period three weeks after the start of feeding. The control diet or TG[…]-containing diet shown in Table 1 continued to be fed to each group for the remaining experiment period. The TG[…] used for the TG[…]-containing diet was the product obtained in Example 1. Since the daily ingestion was approximately 5 g per mouse, the daily intake of TG[…] was 25 mg per mouse. Also, since the total fatty acids bonded to the arachidonic acid-containing oils or fats (triglycerides) prepared in Example 1 included 40 wt % arachidonic acid, the daily intake of arachidonic acid was 10 mg per mouse. The 6-hour restraint with a wire mesh restraining tube was immediately followed by a behavioral observation test. […]

[2] = test system: IL-1β induced stress anxiety behavior models; details: administration of free arachidonic acid; J Lipid Res. 44, 1984, 2003; cited from earlier work

CCCCC/C=C\C/C=C\C/C=C\C/C=C\CCCC(=O)O [arachidonic acid]
overall effect on behavioral patterns altered as a result of stress [1]: exhibits an improving effect against behavioral disorders
effect on IL-1β induced stress anxiety behavior [2]: not effective
